Measured values reported in US20160045497A1, “COMPLEX PREPARATION INCLUDING VALSARTAN AND ROSUVASTATIN CALCIUM AND MANUFACTURING METHOD THEREFOR” (LG LIFE SCIENCES LTD., priority 2013, published 2016).

Legend:
[1] = system: patients with hypertension and hyperlipidemia; assay: Clinical test of combined vs single administration: change of sitDBP after 8 weeks; type: in vivo, human; settings: valsartan 160 mg and/or rosuvastatin 20 mg
Description: (§1) The following tests were performed for patients with hypertension and hyperlipidemia to evaluate the efficacy and safety of the combined administration of 160 mg of valsartan and 20 mg of rosuvastatin in comparison with single administration of each of them.
(§2) A screening inspection was conducted for the subjects, who were 20- to 80-year-old patients suffering from hypertension and hyperlipidemia, to ascertain whether they met the selection/exclusion criteria, and administration of the drugs for treating hypertension and hyperlipidemia, which the subjects had taken, was stopped. All the patients who passed the screening inspection were subjected to Therapeutic Lifestyle Change (TLC) for 4 to 6 weeks, and their blood pressure and fasting serum lipid level were measured finally in the measurement 2 (0 week) visit. If the measured values were recognized as suitable to the following criteria, the patient was randomly assigned to one group of the four (4) treatment groups. […]
(§3) According to random assignment, each subject was assigned with the same probability to one of a total of four groups consisting of one combined administration group (group 1), two single administration groups (groups 2 and 3) and one placebo group (group 4) as shown in the following table. […] The visit window was±4 days at each visit, and the timing of visit was determined with the standard of 0 week. […]

[2] = system: patients with hypertension and hyperlipidemia; assay: Clinical test of combined vs single administration: change of LDL-C after 8 weeks; type: in vivo, human; settings: valsartan 160 mg and/or rosuvastatin 20 mg
Description: as §1, §2, §3

CC(C)c1nc(N(C)S(C)(=O)=O)nc(-c2ccc(F)cc2)c1/C=C/[C@@H](O)C[C@@H](O)CC(=O)O [Example R20, rosuvastatin]
average amount of change of sitDBP from the baseline (Least Square Mean) [1]: −3.64 mmHg | average rate of change of LDL-C from the baseline (Least Square Mean) [2]: −47.27%

CCCCC(=O)N(Cc1ccc(-c2ccccc2-c2nnn[nH]2)cc1)[C@H](C(=O)O)C(C)C [Example V160, valsartan]
average amount of change of sitDBP from the baseline (Least Square Mean) [1]: −7.26 mmHg | average rate of change of LDL-C from the baseline (Least Square Mean) [2]: −4.52%
